Structure (SMILES)	melting point [°C]
O=C(O)C1(c2ccc(Br)cc2)CC1	155 to 157
COC(=O)c1c(-c2cnn(C)c2)csc1N	128 to 130
O=C(O)CNS(=O)(=O)c1ccc(Cl)s1	142 to 144
Oc1ccc(-c2nc3ccccc3[nH]2)cn1	238 to 242
CCNC(=O)CC(=O)O	51 to 53
CC(Cl)C(=O)NC1CCCC1 (stereo not drawn)	111 to 113
COC(=O)COc1cc(N)c(Cl)cc1C	88 to 90
O=C(O)COc1cccc(C(F)(F)F)c1	85 to 87
CCOCCNC(=O)c1cccc(Br)c1	62 to 64
COc1ccc(NC(=O)COc2ccccc2C(=O)O)cc1Cl	229 to 231
COC(=O)c1cncc(I)c1	79 to 81
O=C(O)c1nnc(S)[nH]c1=O	229 to 231
CC(Oc1ccc(F)c(F)c1)C(=O)O (stereo not drawn)	39 to 41
Cc1nnc(CCl)s1	76 to 78
CC(C)CNS(=O)(=O)c1ccc(C#N)cc1	99 to 101
Cc1c(C(=O)O)cnn1C(C)C	142 to 144
CC(=O)N1CCCNc2ccccc21	132 to 134
Cn1ccnc1-c1cc(Cl)ccn1	77 to 79
Cc1[nH]cnc1CC#N	164 to 166
CCOC(=O)c1[nH]nc2ccc(Br)cc12	231 to 233

Structure (SMILES)	melting point [°C]
CCOc1ccc(C(=O)O)cc1OC	198 to 202
O=C(O)c1csc(-c2cnn(-c3ccccc3)c2)n1	202 to 204
NCCC(=O)Nc1ccccc1	62 to 64
O=C(O)C1CC(=O)N(CCOc2ccccc2Cl)C1 (stereo not drawn)	138 to 140
O=C(O)c1ccccc1NCc1ccco1	156 to 158
CCC(=O)c1c(C)nn(C)c1C	50 to 52
O=C(O)c1ccc(Oc2cccnc2)cc1	204 to 206
Cc1cccc2c(CCN)c[nH]c12	125 to 127
CCN(C(=O)OC(C)(C)C)C(C(N)=S)c1cccnc1 (stereo not drawn)	139 to 141
Nc1c(Cl)cnn1C1CCN(Cc2ccccc2)C1 (stereo not drawn)	106 to 108
COC(=O)c1cc(F)cc(OC)c1N	66 to 68
Nc1cc(F)c(OC2CCCCC2)cc1C(=O)O	159 to 161
O=C1NCC2(CCCC2)O1	89 to 91
NC(=O)CCN(C(=O)CCl)c1ccccc1	143 to 145
CC(Cl)C(=O)NC1CCN(Cc2ccccc2)CC1 (stereo not drawn)	119 to 121
COc1cccc(-c2cc(N)n(CCO)n2)c1	148 to 150
Cn1nnnc1SCC(=O)O	108 to 110
CCc1cc(C(=O)O)n[nH]1	191 to 193
COc1ccc2[nH]cc(C(=O)O)c2c1	179 to 181
CC1=NN(c2nc(C)cc(C)n2)C(=O)C1	109 to 111

Structure (SMILES)	melting point [°C]
O=C(c1ccc(F)cc1)c1cnccn1	55 to 57
O=C(O)CCc1csc2ccccc12	140 to 142
N#CCC(=O)NCCc1ccccc1	91 to 93
CC(C)(C)OC(=O)N1CCC(OCC(F)(F)F)(C(=O)O)CC1	259 to 261
NS(=O)(=O)c1cccc(I)c1	148 to 150
O=C1CCCc2cc[nH]c21	94 to 96
Cc1c(N2CCOC2=O)cccc1[N+](=O)[O-]	67 to 69
CC(=O)NCc1ccc(S(N)(=O)=O)s1	121 to 123
Nc1ccc(Sc2ccccn2)c(Cl)c1	110 to 112
NS(=O)(=O)c1ccc(CN=C=S)cc1	159 to 161
CC(C)(C)NS(=O)(=O)c1cccc(N)c1	137 to 139
O=C(O)c1ccc(NS(=O)(=O)c2cc(Cl)sc2Cl)cc1	189 to 191
Cc1ccc(-c2nn(-c3ccccc3)cc2C(=O)O)cc1	229 to 231
CCN1CCN(CC(=O)O)C(=O)C1=O	200 to 202
CC(C)N1C(=O)CNC1=O	83 to 85
Cc1cc(C(=O)CCl)c(C)n1-c1cccc(C(F)(F)F)c1	96 to 98
NC1CCS(=O)(=O)c2ccc(Cl)cc21 (stereo not drawn)	57 to 59
Nc1nc(-c2cc(F)ccc2F)cs1	145 to 147

From a melting point compilation (Tetko et al.)
